The text below walks through data of US6573378B1, “Antiviral guanine derivatives” (Novartis International Pharmaceutical Ltd., priority 1983, dated 2003).

Structures are written as SMILES. ≈ marks a conversion by molar mass, not a printed value. Structures can show the parent of a compound that is named as a salt.

Data set [1] has as its system Herpes simplex type 2 virus (MS strain). Put plainly: Virus CPE reduction, Herpes simplex type 2 virus (MS strain) in MRC-5 cells (Method 2, 24 hours incubation). It is filed as cell-based. The conditions noted are these: Human alphaherpesvirus 2, MRC5, Method 2, CPE reduction, incubation 24 hours, read-out: PDD50 Herpes simplex type 2 virus MS strain in MRC-5 cells. The method, then:
(§1) MRC-5 cells were infected in suspension with Herpes simplex type 1 virus, strain SC16. The infected cell suspension was dispensed (0.1 ml) in 96 well microtitre plates containing the test drugs in maintenance medium in concentrations ranging from 100 to 0.03 μg/ml in half-log dilution steps (0.1 ml per well). The plates were then icubated at 37° C. for 3 days when the virus cytopathic effect (CPE) in the control wells reached 100%. The plates were fixed in 4% formaldehyde solution and stained with carbol fuchsin. […] Plates using uninfected cells were run in parallel to determine the minimum concentration of test compound which caused cytotoxicity (MTD).
(§2) Compounds were also tested against Herpes simplex type 2 virus (MS strain) in Vero cells using Method 1 and in MRC-5 cells using Method 2. In the latter test, the incubation time was reduced to 24 hours.

For data set [2], the system named is Herpes simplex type 1 virus (HFEM strain). Briefly: Plaque reduction, Herpes simplex type 1 virus (HFEM strain) in Vero cells (Method 1). It is filed as cell-based. The conditions noted are these: 50% reduction in number of virus plaques, 4 days at 37° C.; for IC50: Human alphaherpesvirus 1, Vero, 96 h, read-out: PDD50 Herpes simplex type 1 virus HFEM strain in Vero cells. The method, then: (§3) Vero (Arican Green Monkey Kidney) cells were grown to confluence in 24 well multidishes, each well being 1.6 cm in diameter. The cells were infected with Herpes simplex type 1 virus (HFEM strain) and overlaid with 0.5 ml of 0.9% agarose (w/v) in maintenance medium. The test compound, prepared in maintenance medium in concentrations ranging from 100 to 0.3 μg/ml in half-log dilution steps, was added in 0.5 ml volume. The virus infected cultures were then incubated at 37° C. for 4 days before fixing in 4% formaldehyde solution and staining with carbol fuchsin.

Data set [3] deals with Herpes simplex type 2 virus (MS strain). Briefly: Plaque reduction, Herpes simplex type 2 virus (MS strain) in Vero cells (Method 1). The settings on record: Human alphaherpesvirus 2, Method 1, plaque reduction, read-out: PDD50 Herpes simplex type 2 virus MS strain in Vero cells. It is filed as cell-based. The method, then: as §3, §2
Data set [4] has as its system Herpes simplex type 1 virus, strain SC16. Briefly: Virus cytopathic effect (CPE) reduction, Herpes simplex type 1 virus strain SC16 in MRC-5 cells (Method 2). It is filed as cell-based. The conditions noted are these: 50% reduction of virus CPE, 3 days at 37° C.; for IC50: Human alphaherpesvirus 1, SC16, MRC5, 72 h, read-out: PDD50 Herpes simplex type 1 virus SC16 strain in MRC-5 cells. The method, then: as §1
In general terms: Cytopathic effects are the visible damage that an infection or toxin causes in cultured cells.

A short description of data set [5]: Blood concentration of 9-(4-hydroxy-3-hydroxymethylbut-1-yl)guanine in mice after oral administration of derivatives (Method 3). It is filed as in vivo. The settings on record: female Balb/C mice, oral gavage 0.2 mmoles/kg of administered compound, blood 15 minutes later, pooled from three mice; analyte 9-(4-hydroxy-3-hydroxymethylbut-1-yl)guanine. As for the experimental part:
Compounds were administered by oral gavage (0.2 mmoles/kg in 0.1 ml of 1% carboxymethyl cellulose) to 20 g female Balb/C mice which had been starved for 18 hours. Fifteen minutes later, blood was collected from three mice by cardiac puncture using heparinised syringes. Equal aliquots were pooled and an equal volume of 16% trichloroacetic acid added. Following centrifugation (8,500 g) to remove precipitated proteins, the resulting mixture was analysed by high performance liquid chromatography using a C18 Nova-Pak cartridge eluted with Buffer A (50 mM NaH2PO4, pH4.6) and Buffer B (10% Buffer A, 10% water, 80% methanol) in a gradient from 1% to 95% Buffer B. 9-(4-Hydroxy-3-hydroxymethylbut-1-yl)guanine was assayed with a Pye-Unicam PU4021 u.v. detector set at 254 nm.

`Nc1nc2c(ncn2CCC(CO)CO)c(=O)[nH]1` [Example 4, 9-(4-Hydroxy-3-hydroxymethylbut-1-yl)guanine]: the IC50 turned out to be 0.6 µg/mL (≈ 2.37 µM) in data set [1], 1.3 µg/mL (≈ 5.13 µM) in data set [2], 2.3 µg/mL (≈ 9.08 µM) in data set [3] and 0.9 µg/mL (≈ 3.55 µM) in data set [4].
In the case of `Nc1nc2c(ncn2CCC(CO)CO)c(=O)[nH]1.[Na]` [Example 12, 9-(4-Hydroxy-3-hydroxymethylbut-1-yl)guanine, Sodium Salt], the IC50 in data set [2] came out at 2.2 µg/mL; in data set [4], 0.7 µg/mL.
For the compound `Nc1nc2c(ncn2CCC(CO)CO)c(=O)[nH]1` [Example 13, 9-(4-Hydroxy-3-hydroxymethylbut-1-yl)guanine, Potassium Salt], the “PDD50 Herpes simplex type 1 virus HFEM strain in Vero cells” value in data set [2] (Potassium Salt) is 1.7 µg/mL. Moreover, the “PDD50 Herpes simplex type 1 virus SC16 strain in MRC-5 cells” value in data set [4] (Potassium Salt) worked out at 0.7 µg/mL.
As a reminder, the melting point is the temperature of the solid-liquid transition. `COc1nc(N)nc2c1ncn2CCC(CO)CO` [Example 15, 2-Amino-9-(4-hydroxy-3-hydroxymethylbut-1-yl)-6-methoxypurine]: the melting point lay within 117 to 119 °C. Also, the IC50 in data set [1] turned out to be 49 µg/mL (≈ 183 µM). The IC50 in data set [2] is > 100 µg/mL. In data set [3], the IC50 stood at 63 µg/mL (≈ 236 µM). Further, the IC50 in data set [4] is > 100 µg/mL.
`CCOc1nc(N)nc2c1ncn2CCC(CO)CO` [Example 16, 2-Amino-6-ethoxy-9-(4-hydroxy-3-hydroxymethylbut-1-yl)purine] had a melting point of 150 to 152 °C.
On to `Nc1nc(OCc2ccccc2)c2ncn(CCC(CO)CO)c2n1` [Example 17, 2-Amino-6-benzyloxy-9-(4-hydroxy-3-hydroxymethylbut-1-yl)purine], for which the melting point is 146 to 147.5 °C.
As to `Nc1nc(N)c2ncn(CCC(CO)CO)c2n1` [Example 21, 2,6-Diamino-9-(4-hydroxy-3-hydroxymethylbut-1-yl)purine], the melting point is 187 to 190 °C.
Compound `CC(=O)OCC(CCn1cnc2c(=O)[nH]c(N)nc21)COC(C)=O` [Example 22, 9-(4-Acetoxy-3-acetoxymethylbut-1-yl)guanine] showed a melting point of 202 to 205 °C. Besides, the IC50 in data set [1] was found to be 83 µg/mL (≈ 246 µM). Moreover, the IC50 in data set [2] was > 100 µg/mL. Also, the IC50 in data set [3] was > 100 µg/mL. Further, the IC50 in data set [4] is > 100 µg/mL.
`CCC(=O)OCC(CCn1cnc2c(=O)[nH]c(N)nc21)COC(=O)CC` [Example 23, 9-(4-Propionyloxy-3-propionyloxymethylbut-1-yl)guanine]: the IC50 in data set [1] is 85 µg/mL (≈ 233 µM); in data set [2] it was > 100 µg/mL; in data set [3], > 100 µg/mL; in data set [4], 25 µg/mL (≈ 68.4 µM).
On to `CCC(=O)Nc1nc2c(ncn2CCC(COC(=O)CC)COC(=O)CC)c(=O)[nH]1` [Example 24, N^2-Propionyl-9-(4-propionyloxy-3-propionyloxymethyl-but-1-yl)guanine], for which the IC50 is 65 µg/mL (≈ 154 µM) in data set [1], > 100 µg/mL in data set [2], > 100 µg/mL in data set [3] and > 100 µg/mL in data set [4].
For `CCCCCC(=O)OCC(CCn1cnc2c(=O)[nH]c(N)nc21)COC(=O)CCCCC` [Example 25, 9-(4-Hexanoyloxy-3-hexanoyloxymethylbut-1-yl)guanine], the melting point lay within 198.5 to 201 °C. In addition, the IC50 in data set [1] worked out at 0.9 µg/mL (≈ 2 µM). The IC50 in data set [2] came to 1.9 µg/mL (≈ 4.23 µM). For the same compound, the IC50 in data set [3] came to 1.6 µg/mL (≈ 3.56 µM). Also, the IC50 in data set [4] came to 1 µg/mL (≈ 2.22 µM).
Take `Nc1nc2c(ncn2CCC(COC=O)COC=O)c(=O)[nH]1` [Example 26, 9-(4-Formyloxy-3-formyloxymethylbut-1-yl)guanine]: the melting point lay in the range of 195 to 198 °C.
On to `Nc1nc2c(ncn2CCC(COC(=O)n2ccnc2)COC(=O)n2ccnc2)c(=O)[nH]1` [Example 27, 9-[4-(N-Imidazolylcarbonyloxy)-3-(N-imidazolylcarbonyloxymethyl)-but-1-yl]guanine], for which the IC50 turned out to be 5.7 µg/mL (≈ 12.9 µM) in data set [1], 13 µg/mL (≈ 29.5 µM) in data set [2], 2.8 µg/mL (≈ 6.34 µM) in data set [3] and 1.5 µg/mL (≈ 3.4 µM) in data set [4].
`CC(C)(C)C(=O)OCC(CCn1cnc2c(=O)[nH]c(N)nc21)COC(=O)C(C)(C)C` [Example 30, 9-(4-Pivalyloxy-3-pivalyloxymethylbut-1-yl)guanine] gave a melting point of 225 to 237 °C.
As to `CC(=O)OCC(CO)CCn1cnc2c(=O)[nH]c(N)nc21` (stereo not shown) [Example 31, 9-(4-Acetoxy-3-hydroxymethylbut-1-yl)guanine], the melting point was in the range of 194 to 200 °C. In addition, in data set [2], the IC50 turned out to be 24 µg/mL (≈ 81.3 µM). Also, the IC50 in data set [4] was found to be 10 µg/mL (≈ 33.9 µM).
As to `Nc1nc2c(ncn2CCC(CO)COC(=O)c2ccccc2)c(=O)[nH]1` (stereo not shown) [Example 32, 9-(4-Benzoyloxy-3-hydroxymethylbut-1-yl)guanine], the melting point was 156 to 168 °C. Also, the IC50 in data set [2] was 95 µg/mL (≈ 266 µM). The IC50 in data set [4] is 3 µg/mL (≈ 8.39 µM).
`CCCCCC(=O)OCC(CO)CCn1cnc2c(=O)[nH]c(N)nc21` (stereo not shown) [Example 33, 9-(4-Hexanoyloxy-3-hydroxymethylbut-1-yl)guanine]: the melting point is 179 to 181 °C.
Take `CCCCCCCCCCCCCCCC(=O)OCC(CO)CCn1cnc2c(=O)[nH]c(N)nc21` (stereo not shown) [Example 34, 9-(4-Hexadecanoyloxy-3-hydroxymethylbut-1-yl)guanine]: the melting point lay in the range of 183 to 191 °C. In addition, the IC50 in data set [2] came to 16 µg/mL (≈ 32.5 µM). Moreover, the IC50 in data set [4] turned out to be 2 µg/mL (≈ 4.07 µM).
As to `N.N.Nc1nc2c(ncn2CCC(CO)COP(=O)(O)O)c(=O)[nH]1` (stereo not shown) [Example 35, 9-(4-Hydroxy-3-hydroxymethylbut-1-yl)guanine 4′-Phosphate Diammonium Salt], the “Concentration of Example 4 in Blood” value in data set [5] came out at 1100 ng/mL.
On to `CC(=O)Nc1nc2c(ncn2CCC(CO)CO)c(=O)[nH]1` [Example 36, N^2-Acetyl-9-(4-hydroxy-3-hydroxymethylbut-1-yl)guanine], for which the melting point is 143 to 146 °C.
In the case of `CCCCCC(=O)Nc1nc2c(ncn2CCC(CO)CO)c(=O)[nH]1` [Example 37, N^2-Hexanoyl-9-(4-hydroxy-3-hydroxymethylbut-1-yl)guanine], the melting point was in the range of 86 to 88 °C.
In the case of `CC(C)Oc1nc(N)nc2c1ncn2CCC(CO)CO` [Example 38, 2-Amino-9-(4-hydroxy-3-hydroxymethylbut-1-yl)-6-isopropoxypurine], the melting point fell in the range of 111.5 to 113.5 °C.
`Nc1nc(Oc2ccccc2)c2ncn(CCC(CO)CO)c2n1` [Example 39, 2-Amino-9-(4-hydroxy-3-hydroxymethylbut-1-yl)-6-phenoxypurine]: the melting point is 173 to 175 °C.
